From patent US5545399A, “Cosmetic composition” (Chesebrough-Pond's USA Co., priority 1993, dated 1996)
Like-named read-outs stand apart in the source and are kept apart here.

Experiments:
[1] = tested on: Pigment producing cells derived from a mammalian melanoma; assay: In vitro melanocyte cell culture: melanin production (absorbance at 540 nm of melanin released into the medium); format: cell-based; conditions: for activity at 300 µM: dihydrophloretin 0.3 mM; for activity at 100 µM: dihydrophloretin 0.1 mM; for activity at 230 µM: dihydrophloretin 0.23 mM; for melanin production as percentage of control / % pigmentation: 5760 min
Procedure: Test method--In vitro melanocyte cell culture Pigment producing cells derived from a mammalian melanoma are grown in culture by standard methods. Preferred cell lines are B16 or S-91 cells, but other lines or primary mouse or human melanocytes can be used. Melanoma cells are grown in cell culture medium such as RPMI 1640 (GIBCO) supplemented with fetal calf serum and glutamine to approximately 1/3 confluence. The active is dissolved in culture medium, the pH adjusted as required and sterile filtered. The solution is then added to the cells. The cells are cultured for a further period of 4 days and the amount of melanin produced assayed by measuring the absorbance at 540 nm of the melanin released into the medium. The above procedure was used to assess the ability of compositions of (a) dihydrophloretin alone and (b) dihydrophloretin plus retinol to reduce the amount of melanin produced.

Melanoma cells = assay: in vitro; format: cell-based, mammalian
Procedure: (§1) Pigment producing cells derived from a mammalian melanoma are grown in culture by standard methods. Preferred cell lines are B16 or S-91 cells, but other lines or primary mouse or human melanocytes can be used.
(§2) Melanoma cells are grown in cell culture medium such as RPMI 1640 (GIBCO) supplemented with fetal calf serum and glutamine to approximately 1/3 confluence. The active is dissolved in culture medium, the pH adjusted as required and sterile filtered. The solution is then added to the cells.
(§3) Cell viability in the presence of the inhibitor is tested using neutral red (3-amino-7-dimethylamino-2-methyl phenazine hydrochloride) a water soluble vital dye which passes through the intact plasma membrane and becomes concentrated in lysosomes of viable cells. For any culture, the amount of dye taken up is proportional to the number of viable cells and agents that damage cell and lysosomal membranes inhibit dye incorporation.
(§4) The cells are incubated in 50 μg/ml neutral red solution for 3 hours at 37° C. in 5% CO2 in air. The solution is aspirated, the cells washed once in saline and to them added a solvent (50% H2 O, 49% ethanol, 1% acetic acid) to solubilise the dye. The amount of neutral red dye is quantified by measuring absorbance at 540 nm.
(§5) The above procedure was used to assess the ability of compositions of (a) dihydrophloretin alone and (b) dihydrophloretin plus retinol to reduce the amount of melanin produced.
(§6) The results for melanin production were calculated as percentages of control which contained medium alone. There was no effect on viability at the concentrations of actives reported.

in vitro = format: cell-based, mammalian; conditions: melanoma cells
Procedure: as §1, §2, §3, §4, §5, §6

[2] = Melanocyte, 96 h, Table 4, trans retinol 0, read-out: melanin production as percentage of control
[3] = Melanocyte, 96 h, Table 5, retinol 0, n 3, read-out: % pigmentation

`CC1=C(/C=C/C(C)=C/C=C/C(C)=C/CO)C(C)(C)CCC1` [Trans Retinol, retinol, reference compound] gave an activity at 2 µM ([1]; Melanocyte, 96 h, Table 4, trans retinol 2.0 μm, dihydrophloretin 0, read-out: melanin production as percentage of control) of 121%, an activity at 6.7 µM ([1]; Melanocyte, 96 h, Table 4, trans retinol 6.7 μm, dihydrophloretin 0, read-out: melanin production as percentage of control) of 92.9% and an activity at 2 µM ([1]; Melanocyte, 96 h, Table 5, retinol 2.0 μM, dihydrophloretin 0.0, n 1, read-out: % pigmentation) of 120%. For the same compound, the activity at 6.7 µM ([1]; Melanocyte, 96 h, Table 5, retinol 6.7 μM, dihydrophloretin 0.0, n 2, read-out: % pigmentation) was 97%, the cell viability (Melanoma cells) was “No adverse effects” and the viability at 2 µM (in vitro) was 100%. For the same compound, the viability at 6.7 µM (in vitro) was 100%.
Work on `Oc1ccc(CCC(O)c2c(O)cc(O)cc2O)cc1` (stereo not shown) [Dihydrophloretin, dihydrophloretin] yielded an activity at 10 µM ([1]; Melanocyte, 96 h, Table 3, dihydrophloretin 0.01 mM, 4 days, read-out: % of control melanin production) of 100%, an activity at 30 µM ([1]; Melanocyte, 96 h, Table 3, dihydrophloretin 0.03 mM, 4 days, read-out: % of control melanin production) of 99.8% and an activity at 300 µM ([1]; Melanocyte, 96 h, Table 3, 4 days, read-out: % of control melanin production) of 57%. It also gave an activity at 100 µM [1, 2] of 98.1%, an activity at 170 µM ([1]; Melanocyte, 96 h, Table 4, dihydrophloretin 0.17 mM, trans retinol 0, read-out: melanin production as percentage of control) of 109% and an activity at 230 µM [1, 2] of 109%. For the same compound, the activity at 300 µM [1, 2] was 109%, the activity at 100 µM [1, 3] was 99% and the activity at 230 µM [1, 3] was 104%. The activity at 300 µM ([1]; Melanocyte, 96 h, Table 5, retinol 0, n 4, read-out: % pigmentation) was 94%, the “melanin production as percentage of control” value ([1]; Table 4, dihydrophloretin 0.1 mM plus trans retinol 2.0 μm) was 120.2 % of control and the “melanin production as percentage of control” value ([1]; Table 4, dihydrophloretin 0.1 mM plus trans retinol 6.7 μm, *significantly less (P<0.05) than Control) was 82.1 % of control. For the same compound, the “melanin production as percentage of control” value ([1]; Table 4, dihydrophloretin 0.17 mM plus trans retinol 2.0 μm) was 111.0 % of control, the “melanin production as percentage of control” value ([1]; Table 4, dihydrophloretin 0.17 mM plus trans retinol 6.7 μm, *significantly less (P<0.05) than Control) was 76.0 % of control and the “melanin production as percentage of control” value ([1]; Table 4, dihydrophloretin 0.23 mM plus trans retinol 2.0 μm) was 110.0 % of control. The “melanin production as percentage of control” value ([1]; Table 4, dihydrophloretin 0.23 mM plus trans retinol 6.7 μm, *significantly less (P<0.05) than Control) was 60.9 % of control, the “melanin production as percentage of control” value ([1]; Table 4, dihydrophloretin 0.3 mM plus trans retinol 2.0 μm) was 104.0 % of control and the “melanin production as percentage of control” value ([1]; Table 4, dihydrophloretin 0.3 mM plus trans retinol 6.7 μm, *significantly less (P<0.05) than Control) was 34.0 % of control. The “% pigmentation” value ([1]; Table 5, dihydrophloretin 0.1 mM plus retinol 2.0 μM, n 1) was 120%, the “% pigmentation” value ([1]; Table 5, dihydrophloretin 0.1 mM plus retinol 6.7 μM, n 2) was 86% and the “% pigmentation” value ([1]; Table 5, dihydrophloretin 0.17 mM plus retinol 2.0 μM, n 1) was 111%. The “% pigmentation” value ([1]; Table 5, dihydrophloretin 0.17 mM plus retinol 6.7 μM, n 2) was 73%, the “% pigmentation” value ([1]; Table 5, dihydrophloretin 0.23 mM plus retinol 2.0 μM, n 1) was 110% and the “% pigmentation” value ([1]; Table 5, dihydrophloretin 0.23 mM plus retinol 6.7 μM, n 2) was 55%. The “% pigmentation” value ([1]; Table 5, dihydrophloretin 0.3 mM plus retinol 6.7 μM, n 1) was 34%, the cell viability (Melanoma cells) was “No adverse effects” and the viability at 100 µM (in vitro) was 100%. It also gave a viability at 170 µM (in vitro) of 100%, a viability at 230 µM (in vitro) of 100% and a viability at 300 µM (in vitro) of 100%.
